Measured values reported in US7589219B2, “2,5-bis-diamine-[1,4]benzoquinonic derivatives, useful for the treatment of alzheimer's disease, method for preparing them and intermediates of said method” (priority 2002, dated 2009).
“Also recorded” adds a separate entry of the source. Read-outs that look alike come from different tables or passages of the source.

Columns and labels:
[1] = target: recombining human AChE (HuAChE, EC 3.1.1.7) (Homo sapiens, UniProt P22303); type: biochemical; settings: mean of two independent measurements in triplicate
[2] = target: BuChE (from human serum, EC 3.1.1.8) (Homo sapiens, UniProt P06276); test: biochemical
[3] = target: AChE, from human erythrocytes EC 3.1.1.7 (Homo sapiens, UniProt P22303); type: biochemical
[4] = tested on: non transgenic mice treated with scopolamine; test: Object recognition test, amnesia induced by scopolamine in non transgenic mice; type: in vivo, mouse; settings: per os 15 mg/kg 20 min before scopolamine 0.5 mg/kg s.c. (FIG. 14)
[5] = Total antioxidant status (Randox kit, modified), capture of oxygen radicals, ABTS colorimetric method; type: biochemical; settings: for % inhibition (antioxidant activity): absorbance 600 nm, 3 min, pH 7.4, 37° C.
[6] = target: aggregation of Aβ (1-40) induced by AChE (recombining human, EC 3.1.1.7) (Homo sapiens, UniProt P22303); test: biochemical; type: biochemical
[7] = tested on: anti-NGF transgenic mice (AD11); test: Immunohistochemistry and neurostereology in anti-NGF transgenic mice (AD11); type: in vivo, mouse; settings: for extracellular deposition of APP: 6 month-old AD11 mice (FIG. 19); for cholinergic deficit in the basal forebrain (number of cholinergic neurons): AD11 mice from 6 months of age for 15 days (FIG. 16); for number of cells accumulating β-amyloid protein in the hippocampus: treatment starting at 6 months of age (FIG. 20)
[8] = target: AChE (from human erythrocytes, amphiphilic form, EC 3.1.1.7) (Homo sapiens, UniProt P22303); test: biochemical; settings: for Selectivity IC50(BuChE)/IC50 (AChE): ratio of the Table I IC50 values
AD11 mice = test: Object recognition test in AD11 mice; type: in vivo, mouse
[9] = BuChE from human serum, Example 50 table, mean of two independent measurements in triplicate, read-out: IC50 (BuChE)
[10] = BuChE from human serum, Ellman's method, Table I, read-out: IC50 (BuChE)
[11] = AD11 mice aged 15 months, per os 7 mg/kg/day for 1 month, versus placebo (FIG. 11)
[12] = AD11 mice, 15 days starting at 6 months of age (FIG. 18)
[13] = AD11 mice, daily from 1.5 months until 2 months of age, per os or intraperitoneal, comparison of AChE inhibitors (FIG. 15)
[14] = AChE from human erythrocytes, Ellman's method, Table I, read-out: IC50(AChE)

AChE (from human erythrocytes, amphiphilic form, EC 3.1.1.7), sequence (P22303 32-617 isoform P22303-2 limits assumed): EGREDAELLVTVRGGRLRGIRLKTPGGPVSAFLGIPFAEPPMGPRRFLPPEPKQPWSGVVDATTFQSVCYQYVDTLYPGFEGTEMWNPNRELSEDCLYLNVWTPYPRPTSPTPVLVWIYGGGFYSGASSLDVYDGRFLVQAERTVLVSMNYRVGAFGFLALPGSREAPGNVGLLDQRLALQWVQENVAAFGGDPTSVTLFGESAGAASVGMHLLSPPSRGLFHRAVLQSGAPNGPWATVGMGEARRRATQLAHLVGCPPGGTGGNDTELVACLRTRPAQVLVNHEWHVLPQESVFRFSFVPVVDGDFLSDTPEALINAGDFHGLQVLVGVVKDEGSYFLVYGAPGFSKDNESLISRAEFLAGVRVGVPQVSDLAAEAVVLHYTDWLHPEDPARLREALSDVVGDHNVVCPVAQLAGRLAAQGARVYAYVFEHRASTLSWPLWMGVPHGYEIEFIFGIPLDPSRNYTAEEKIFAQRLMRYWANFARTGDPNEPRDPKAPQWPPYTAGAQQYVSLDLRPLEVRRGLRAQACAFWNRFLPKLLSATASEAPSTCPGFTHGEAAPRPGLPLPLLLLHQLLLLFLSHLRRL
BuChE (from human serum, EC 3.1.1.8), sequence (P06276 29-602): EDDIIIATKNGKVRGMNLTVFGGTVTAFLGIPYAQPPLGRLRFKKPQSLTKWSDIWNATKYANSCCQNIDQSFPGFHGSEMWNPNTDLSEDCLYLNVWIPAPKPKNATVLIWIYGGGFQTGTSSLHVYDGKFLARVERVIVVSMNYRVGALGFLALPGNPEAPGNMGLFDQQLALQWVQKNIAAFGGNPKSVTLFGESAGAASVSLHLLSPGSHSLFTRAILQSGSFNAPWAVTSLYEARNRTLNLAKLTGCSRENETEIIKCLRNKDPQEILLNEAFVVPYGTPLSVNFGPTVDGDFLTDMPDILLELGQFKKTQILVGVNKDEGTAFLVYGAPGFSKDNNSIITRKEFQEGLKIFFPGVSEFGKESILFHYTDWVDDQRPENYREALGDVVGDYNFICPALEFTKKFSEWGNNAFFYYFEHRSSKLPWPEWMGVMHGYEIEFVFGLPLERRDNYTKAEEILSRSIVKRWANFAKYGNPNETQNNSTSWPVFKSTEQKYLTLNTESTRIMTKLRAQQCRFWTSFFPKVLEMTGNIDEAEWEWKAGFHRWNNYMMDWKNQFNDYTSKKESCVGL
recombining human AChE (HuAChE, EC 3.1.1.7), sequence (P22303 32-614): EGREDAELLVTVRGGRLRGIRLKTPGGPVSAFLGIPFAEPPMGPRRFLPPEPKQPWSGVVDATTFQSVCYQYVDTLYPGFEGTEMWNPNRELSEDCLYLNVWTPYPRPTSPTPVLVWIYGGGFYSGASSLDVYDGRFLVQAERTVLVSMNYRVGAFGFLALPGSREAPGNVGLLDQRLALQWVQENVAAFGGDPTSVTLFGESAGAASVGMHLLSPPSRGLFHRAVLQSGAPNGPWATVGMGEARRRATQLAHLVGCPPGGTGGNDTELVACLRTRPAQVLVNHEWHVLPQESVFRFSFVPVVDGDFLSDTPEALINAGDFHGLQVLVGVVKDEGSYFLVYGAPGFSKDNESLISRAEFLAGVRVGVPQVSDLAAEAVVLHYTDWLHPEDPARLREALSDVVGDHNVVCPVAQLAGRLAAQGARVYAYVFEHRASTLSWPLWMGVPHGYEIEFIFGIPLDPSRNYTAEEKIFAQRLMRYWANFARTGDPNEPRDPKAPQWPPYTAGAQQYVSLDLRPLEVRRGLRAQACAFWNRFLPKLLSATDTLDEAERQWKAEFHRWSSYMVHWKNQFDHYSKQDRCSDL
AChE, from human erythrocytes EC 3.1.1.7, sequence (P22303 32-617 isoform P22303-2 limits assumed): as the sequence (P22303 32-617 isoform P22303-2 limits assumed) above
aggregation of Aβ (1-40) induced by AChE (recombining human, EC 3.1.1.7), sequence (P22303 32-614): as the sequence (P22303 32-614) above

## CCN(CCCCCCNC1=CC(=O)C(NCCCCCCN(CC)Cc2ccc(OC)cc2)=CC1=O)Cc1ccc(OC)cc1 [XXXVII, 2,5-bis-{6-[ethyl-(4-methoxy-benzyl)-amino]-hexylamino}-[1,4]benzoquinone]
[1]
  IC50: 51.1 ± 1 nM
[2]; [9]
  IC50: 2420 ± 940 nM

## CCN(CCCCCCNC1=CC(=O)C(NCCCCCCN(CC)Cc2ccccc2OC)=CC1=O)Cc1ccccc1OC [Compound XVI, 2,5-Bis-{6-[ethyl-(2-methoxy-benzyl)-amino]-hexylamino}-[1,4]benzoquinone]
[3]; Lineweaver-Burk analysis (FIG. 1)
  type of inhibition: competitive inhibitor of a mixed type
[3]; acetylthiocholine 111-550 μM, Lineweaver-Burk, intercept of the gradient plot
  Ki: 2.6 nM
[4]
  amnesia induced by scopolamine, object recognition test: did not show any signs of amnesia
[1]
  IC50: 1.55 ± 0.11 nM
[2]; [10]
  IC50: 1440 ± 100 nM
[2]; [9]
  IC50: 1440 ± 100 nM
[2]; approximate, corresponds to the Table I IC50, read-out: pIC50(BChE) (converted)
  IC50: ~1450 nM
[5]; concentration 170 μM, with human serum albumin 25 μM
  % inhibition (antioxidant activity): 44.1 ± 3.7%
[5]; oxidated quinonic form tested
  antioxidant power, times lower than Trolox: about 6 times
[6]; read-out: concentration able to reduce the signal of fluorescence by 50% (IC50, AChE-induced Aβ aggregation), Aβ 230 μM, AChE 2.3 μM, thioflavine T fluorescence
  IC50: 28300 ± 300 nM
[7]
  extracellular deposition of APP: reduced the extracellular deposition of APP
  cholinergic deficit in the basal forebrain (number of cholinergic neurons): able to rescue the cholinergic deficit
[7]; AD11 mice aged 15 months, per os 7 mg/kg/day for 1 month (FIG. 9)
  number of cholinergic neurons in the basal forebrain: improvement in the number of cholinergic neurons
[7]; AD11 mice aged 15 months, per os 7 mg/kg/day for 1 month, versus placebo (FIG. 10)
  intracellular accumulation of hyperphosphorylated tau: decreased
[7]; [11]
  number of cells associated with plaques: lower than that in placebo-treated mice
  number of β-amyloid plaques: decrease in the number of β-amyloid plaques
[7]; AD11 mice of 2 months, 7 mg/kg intraperitoneal daily for 15 days (FIG. 7)
  APP deposition in the cerebral vessels: able to reduce markedly the cerebrovascular deposition of APP
[7]; AD11 mice of 2 months, 7 mg/kg intraperitoneal daily for 15 days (FIG. 8)
  tau hyperphosphorylation in the cortex: partly prevented
[7]; AD11 mice, 7 mg/kg intraperitoneal daily for 15 days from age 1.5 to 2 months (FIG. 6)
  cholinergic neurons in the basal nucleus of Meynert: efficacious in preventing the loss of cholinergic neurons
[7]; AD11 mice, 7 mg/kg intraperitoneal daily for 15 days from age 1.5 to 2 months (FIGS. 4, 5)
  ChAT positive cholinergic neurons in the basal forebrain: able to prevent the cholinergic deficit in the basal forebrain
[7]; AD11 mice, 15 days starting at 1.5 months of age (FIG. 17)
  number of neurons labelled with antibodies against phospho-tau (entorhinal cortex): reduced the number of neurons labelled with antibodies against phospho-tau
[7]; [12]
  number of neurons labelled with antibodies against phospho-tau (entorhinal cortex): reduced the number of neurons labelled with antibodies against phospho-tau
[7]; [13]
  number of cholinergic neurons in the basal forebrain: prevented the decrease of the number of cholinergic neurons
[7]; AD11 mice
  number of cells accumulating β-amyloid protein in the hippocampus: able to reduce the number of cells accumulating β-amyloid protein
[8]; [14]
  IC50: 2.39 ± 0.14 nM
[8]
  Selectivity IC50(BuChE)/IC50 (AChE): 602
AD11 mice; AD11 mice at 6 months, 15 mg/kg/day per os for 15 days (FIGS. 12, 21), 15 mg/kg/day
  behavioural deficit, object recognition test (discrimination index): improvement of the deficit; also recorded: marked amelioration of the behavioural deficit
AD11 mice; AD11 mice at 12 months, 15 mg/kg/day per os for 15 days (FIG. 13)
  behavioural deficit, object recognition test (discrimination index): improvement of the deficit

## CCN(CCNC1=CC(=O)C(NCCN(CC)Cc2ccccc2OC)=CC1=O)Cc1ccccc1OC [XLV, 2,5-bis-{2-[ethyl-(2-methoxy-benzyl)-amino]-ethylamino}-[1,4]benzoquinone]
[1]
  IC50: 61.5 ± 1.3 nM
[2]; [9]
  IC50: 16800 ± 1100 nM

## CCN(CCCCCCNC1=CC(=O)C(NCCCCCCN(CC)Cc2ccccc2Cl)=CC1=O)Cc1ccccc1Cl [XVIII, 2,5-Bis-{6-[ethyl-(2-chloro-benzyl)-amino]-hexylamino}-[1,4]benzoquinone]
[1]
  IC50: 593 ± 51 nM
[2]; [9]
  IC50: 45100 ± 1000 nM

## Nc1c2c(nc3ccccc13)CCCC2 [Tacrine, reference compound]
[7]; [13]
  number of cholinergic neurons in the basal forebrain: aggravated the cholinergic deficit

## CCN(CCCNC1=CC(=O)C(NCCCN(CC)Cc2ccccc2OC)=CC1=O)Cc1ccccc1OC [XII, 2,5-Bis-{3-[ethyl-(2-methoxy-benzyl)-amino]-propylamino}-[1,4]benzoquinone]
[1]
  IC50: 2.25 ± 0.21 nM
[2]; [10]
  IC50: 4490 ± 340 nM
[6]; concentration of 100 μM
  inhibition at 100 µM: ~90%
[8]; [14]
  IC50: 3.19 ± 0.15 nM
[8]; approximate, corresponds to the Table I IC50, read-out: pIC50(AChE) (converted)
  IC50: ~3.24 nM
[8]
  Selectivity IC50(BuChE)/IC50 (AChE): 1407

## COc1ccccc1CNCCCCCCNC1=CC(=O)C(NCCCCCCNCc2ccccc2OC)=CC1=O [LI, 2,5-bis-[6-(2-methoxy-benzylamino)-hexylamino]-[1,4]-benzoquinone]
[1]
  IC50: 123 ± 20 nM
[2]; [9]
  IC50: 3230 ± 150 nM

## CCN(CCCCCCNC1=CC(=O)C(NCCCCCCN(CC)Cc2cccc(OC)c2)=CC1=O)Cc1cccc(OC)c1 [XXXIII, 2,5-bis-{6-[ethyl-(3-methoxy-benzyl)-amino]-hexylamino}-[1,4]benzoquinone]
[1]
  IC50: 13.8 ± 1.7 nM
[2]; [9]
  IC50: 2170 ± 70 nM

## Cc1c(C)c2c(c(C)c1O)CCC(C)(C(=O)O)O2 (centres unmarked) [Trolox, 6-hydroxy-2,5,7,8-tetramethylchroman-2-carboxylic acid, reference compound]
[5]; concentration 27 μM
  % inhibition (antioxidant activity): 57.6 ± 0.9%

## COc1ccccc1CN(C)CCCCCC(=O)N(C)CCCCCCCCN(C)C(=O)CCCCCN(C)Cc1ccccc1OC [Caproctamine, reference compound]
[7]
  extracellular deposition of APP: ineffective
  cholinergic deficit in the basal forebrain (number of cholinergic neurons): had no effect on the number of cholinergic neurons
[7]; [12]
  number of neurons labelled with antibodies against phospho-tau (entorhinal cortex): ineffective
[7]; AD11 mice
  number of cells accumulating β-amyloid protein in the hippocampus: ineffective

## CCN(CCCCCCNC1=CC(=O)C(NCCCCCCN(CC)Cc2ccccc2)=CC1=O)Cc1ccccc1 [XVII, 2,5-Bis-[6-(benzyl-ethyl-amino)-hexylamino]-[1,4]benzoquinone]
[1]
  IC50: 73.3 ± 3.2 nM
[2]; [9]
  IC50: 645 ± 33 nM

## CCN(CCCCCCCNC1=CC(=O)C(NCCCCCCCN(CC)Cc2ccccc2OC)=CC1=O)Cc1ccccc1OC [IL, 2,5-bis-{7-[ethyl-(2-methoxy-benzyl)-amino]-heptylamino}-[1,4]benzoquinone]
[1]
  IC50: 7.79 ± 0.37 nM
[2]; [9]
  IC50: 1250 ± 250 nM

## CCN(CCCCCCNC1=CC(=O)C(NCCCCCCN(CC)Cc2ccccc2[N+](=O)[O-])=CC1=O)Cc1ccccc1[N+](=O)[O-] [XXIX, 2,5-bis-{6-[ethyl-(2-nitro-benzyl)-amino]-hexylamino}-[1,4]benzoquinone]
[1]
  IC50: 2310 ± 130 nM
[2]
  IC50: 36500 ± 8800 nM

## CCN(CCCCCCNC1=C(C)C(=O)C(NCCCCCCN(CC)Cc2ccccc2OC)=C(C)C1=O)Cc1ccccc1OC [LV, 2,5-bis-{6-[ethyl-(2-methoxy-benzyl)-amino]-hexylamino}-3,6-dimethyl-[1,4]-benzoquinone]
[1]
  IC50: 9.5 ± 0.23 nM
[2]; [9]
  IC50: 462 ± 2 nM

## COc1ccccc1CN(C)CCCCCCNC1=CC(=O)C(NCCCCCCN(C)Cc2ccccc2OC)=CC1=O [LIV, 2,5-bis-{6-[(2-methoxy-benzyl)-methylamino]-hexylamino}-[1,4]-benzoquinone]
[1]
  IC50: 77.8 ± 4.3 nM
[2]; [9]
  IC50: 5110 ± 410 nM

## CCN(CCCCCCNC1=CC(=O)C(NCCCCCCN(CC)Cc2ccco2)=CC1=O)Cc1ccco1 [XLI, 2,5-bis-[6-(ethyl-furan-2-ilmethyl-amino)-hexylamino]-[1,4]benzoquinone]
[1]
  IC50: 144 ± 3 nM
[2]; [9]
  IC50: 3510 ± 180 nM
